From patent publication US10633669B2, “Herbicide-resistant protein, encoding gene and use thereof” (BEIJING DABEINONG TECHNOLOGY GROUP CO., LTD., priority 2015, dated 2020)

Legend:
[1] = test system: Arabidopsis T1 plants transformed with 24DT11 nucleotide sequence; test: Herbicide resistance effect test of transgenic Arabidopsis T1 plants (spray); format: in vivo, Arabidopsis thaliana; conditions: genotype 24DT11
Text: (§1) 24DT11 gene was used to transform Arabidopsis for the first time. At first, T1 transformants were selected from the background of un-transformed seeds, using glufosinate-ammonium selection scheme. About 20000 T1 seeds are screened among which 282 strains of T1 generation positive transformants (PAT gene) were identified, i.e. the transformation efficiency was about 1.4%. Herbicide resistance effect tests to 2,4-D dimethyl ammonium salt and agroxone of Arabidopsis T1 plants transformed with 24DT11 nucleotide sequence, control nucleotide sequence respectively and wild-type Arabidopsis plants were performed after 18 days of planting.
(§2) Arabidopsis T1 plants transformed with 24DT11 nucleotide sequence, control nucleotide sequence respectively and wild-type Arabidopsis plants were sprayed with 2,4-D dimethyl ammonium salt (560 g ae/ha, 1-fold concentration in field), agroxone (560 g ae/ha, 1-fold concentration in field) and blank solvent (water). Resistance conditions of the plants were counted 7 days and 14 days after spraying. Plants with growth conditions consistent with blank solvent (water) 7 days after spaying were classified as highly resistant plants; Plants with curly rosette leaves 7 days after spaying were classified as moderately resistant plants; Plants incapable of bolting 14 days after spaying were classified as low-resistant plants and the dead plants 14 days after spaying were classified as non-resistant plants. Because each Arabidopsis T1 plant is an independent transformation event, significant differences of individual T1 responses can be expected under a given dose.

[2] = test system: Corn plants containing 24DT11 nucleotide sequence (S6, S7 and S8); test: Herbicide-resistance effect test of transgenic corn plants (spray, prop root development); format: in vivo; conditions: 21 days after spraying
Description: (§3) Herbicide resistance effects tests to 2,4-D dimethyl ammonium salt and agroxone of corn plants containing 24DT11 nucleotide sequence, control nucleotide sequence respectively and wild type corn plants (stages V3-V4) were performed respectively.
(§4) Corn plants containing 24DT11 nucleotide sequence, control nucleotide sequence respectively and wild type corn plants were taken and spayed with 2,4-D dimethyl ammonium salt (8960 g ae/ha, 16-folds concentration in field), agroxone (8960 g ae/ha, 16-folds concentration in field) and blank solvent (water) respectively. Prop root development was counted 21 days after spaying. Three strains (S6, S7 and S8) of corn plants transformed with 24DT11 nucleotide sequence, two strains (S9 and S10) of corn plants transformed with control nucleotide sequence and 1 strain of wild type (CK2) corn were selected and 10-15 plants from each stain were tested.

[3] = test system: Soybean plants containing 24DT11 nucleotide sequence (S1, S2 and S3); test: Herbicide-resistance effect of transgenic soybean plants (spray, damage degree); format: in vivo; conditions: for Average damage % 6HAT: 6 hours after spraying; for Average damage % 2DAT: 2 days after spraying; for Average damage % 7DAT: 7 days after spraying; for Average damage % 14DAT: 14 days after spraying
Description: (§5) Herbicide resistance effects tests to 2,4-D dimethyl ammonium salt and agroxone of soybean plants containing 24DT11 nucleotide sequence and control nucleotide sequence respectively and wild type soybean plants (stages V3-V4) were performed respectively.
(§6) Soybean plants containing 24DT11 nucleotide sequence, control nucleotide sequence and wild type soybean plants were taken and spayed with 2,4-D dimethyl ammonium salt (2240 g ae/ha, four-folds concentration in field), agroxone (2240 g ae/ha, four-folds concentration in field) and blank solvent (water). Take statistics of the damage degree of each plant caused by herbicides according to the curling degree of leaves and the damage degree of growing point six hours ([…]), two days (2DAT), seven days (7DAT) and 14 days (14DAT) after spraying respectively: if leaves are flat like wild-type leaves and the growing point is intact, the damage degree is 0%; if leaves curl up and wilt and the growing point is died, the damage degree is 100%. There are three strains contained a transferred 24DT11 nucleotide sequence (S1, S2 and S3), two strains contained a transferred control sequence (S4 and S5) and one wild-type strain (CK1) in total; select 10˜15 plants from each strain for testing.

[4] = test system: wild type soybean plants (CK1); test: Herbicide-resistance effect of wild type soybean (spray, damage degree); format: in vivo; conditions: wild-type soybean strain CK1, 2240 g ae/ha
Description: as §5, §6

[5] = test system: Soybean plants containing control nucleotide sequence (S4 and S5); test: Herbicide-resistance effect of soybean plants with control sequence (spray, damage degree); format: in vivo; conditions: 2240 g ae/ha; for Average damage % 6HAT: 6 hours after spraying; for Average damage % 2DAT: 2 days after spraying; for Average damage % 7DAT: 7 days after spraying; for Average damage % 14DAT: 14 days after spraying
Description: as §5, §6

[6] = test system: wild-type Arabidopsis plants; test: Herbicide resistance effect test of wild-type Arabidopsis (spray); format: in vivo, Arabidopsis thaliana; conditions: genotype Wild, 560 g ae/ha
Text: as §1, §2

[7] = test system: Corn plants containing control nucleotide sequence (S9 and S10); test: Herbicide-resistance effect test of corn plants with control sequence (spray, prop root development); format: in vivo; conditions: 8960 g ae/ha, 21 days after spraying
Description: as §3, §4

[8] = test system: Arabidopsis T1 plants transformed with control nucleotide sequence; test: Herbicide resistance effect test of Arabidopsis T1 plants with control sequence (spray); format: in vivo, Arabidopsis thaliana; conditions: genotype Control, 560 g ae/ha
Text: as §1, §2

[9] = test system: wild type corn plants (CK2); test: Herbicide-resistance effect test of wild type corn (spray, prop root development); format: in vivo; conditions: wild type corn strain CK2; 8960 g ae/ha; 21 days after spraying
Description: as §3, §4

[10] = corn strain S6 (24DT11), 8960 g ae/ha
[11] = corn strain S7 (24DT11), 8960 g ae/ha
[12] = corn strain S8 (24DT11), 8960 g ae/ha
[13] = soybean strain S1 (24DT11), 2240 g ae/ha
[14] = soybean strain S2 (24DT11), 2240 g ae/ha
[15] = soybean strain S3 (24DT11), 2240 g ae/ha
[16] = soybean strain S4 (control sequence)
[17] = soybean strain S5 (control sequence)
[18] = curly rosette leaves 7 days after spraying
[19] = growth consistent with blank solvent 7 days after spraying
[20] = incapable of bolting 14 days after spraying
[21] = corn strain S9 (control sequence)
[22] = corn strain S10 (control sequence)

With `CNC.O=C(O)COc1ccc(Cl)cc1Cl` [2,4-D dimethyl ammonium salt] the “High resistant (number of plants)” value ([1]; 560 g ae/ha (1-fold field concentration), growth consistent with blank solvent 7 days after spraying) was 26, the “Moderate resistant (number of plants)” value ([1]; 560 g ae/ha, curly rosette leaves 7 days after spraying) was 2 and the “Non-resistant (number of plants)” value ([1]; 560 g ae/ha, dead 14 days after spraying) was 3. For the same molecule, the “Low resistant (number of plants)” value ([1]; 560 g ae/ha, incapable of bolting 14 days after spraying) was 1, the “Normal development of brace roots (number of plants)” value ([2]; corn strain S6 (24DT11), 8960 g ae/ha (16-fold field)) was 15 and the “Abnormal development of brace roots (number of plants)” value (from here on “Abnormal development of brace roots”) [2, 10] was 0. The “Proportion of normal development of brace roots” value (from here on “Proportion”) [2, 10] was 100.00%, the “Abnormal development of brace roots” value [2, 11] was 0 and the “Normal development of brace roots (number of plants)” value [2, 11] was 13. For the same molecule, the “Proportion” value [2, 11] was 100.00%, the “Abnormal development of brace roots” value [2, 12] was 0 and the “Normal development of brace roots (number of plants)” value [2, 12] was 12. The “Proportion” value [2, 12] was 100.00%, the “Average damage % 6HAT” value ([3]; soybean strain S1 (24DT11), 2240 g ae/ha (4-fold field)) was 7% and the “Average damage % 2DAT” value [3, 13] was 4%. For the same molecule, the “Average damage % 7DAT” value [3, 13] was 0%, the “Average damage % 14DAT” value [3, 13] was 0% and the “Average damage % 6HAT” value [3, 14] was 5%. For the same molecule, the “Average damage % 2DAT” value [3, 14] was 2%, the “Average damage % 7DAT” value [3, 14] was 0% and the “Average damage % 14DAT” value [3, 14] was 0%. For the same molecule, the “Average damage % 6HAT” value [3, 15] was 13%, the “Average damage % 2DAT” value [3, 15] was 6% and the “Average damage % 7DAT” value [3, 15] was 2%. For the same molecule, the “Average damage % 14DAT” value [3, 15] was 0%, the “Average damage % 6HAT” value ([4]; 6 hours after spraying) was 48% and the “Average damage % 2DAT” value ([4]; 2 days after spraying) was 72%. The “Average damage % 7DAT” value ([4]; 7 days after spraying) was 94%, the “Average damage % 14DAT” value ([4]; 14 days after spraying) was 100% and the “Average damage % 6HAT” value [5, 16] was 46%. The “Average damage % 2DAT” value [5, 16] was 76%, the “Average damage % 7DAT” value [5, 16] was 96% and the “Average damage % 14DAT” value [5, 16] was 100%. The “Average damage % 6HAT” value [5, 17] was 53%, the “Average damage % 2DAT” value [5, 17] was 77% and the “Average damage % 7DAT” value [5, 17] was 91%. For the same molecule, the “Average damage % 14DAT” value [5, 17] was 100%, the “Moderate resistant (number of plants)” value [6, 18] was 0 and the “Non-resistant (number of plants)” value ([6]; dead 14 days after spraying) was 32. The “High resistant (number of plants)” value [6, 19] was 0, the “Low resistant (number of plants)” value [6, 20] was 0 and the “Abnormal development of brace roots” value [7, 21] was 13. The “Normal development of brace roots (number of plants)” value [7, 21] was 0, the “Proportion” value [7, 21] was 0% and the “Abnormal development of brace roots” value [7, 22] was 12. The “Normal development of brace roots (number of plants)” value [7, 22] was 0, the “Proportion” value [7, 22] was 0% and the “Moderate resistant (number of plants)” value [8, 18] was 0. The “Non-resistant (number of plants)” value ([8]; dead 14 days after spraying) was 32, the “High resistant (number of plants)” value [8, 19] was 0 and the “Low resistant (number of plants)” value [8, 20] was 0. For the same molecule, the “Abnormal development of brace roots” value [9] was 14, the “Normal development of brace roots (number of plants)” value [9] was 0 and the “Proportion” value [9] was 0%.
